Assay results published in patent US20050142254A1 (priority 2003, published 2005).
Where two headings read alike, the source gives them in different places.

Experiments:
[1] = format: physicochemical
Text: (§1) We also confirmed that AFQ1 degradation is accelerated by heat, and it occurs non-enzymatically. Horseradish peroxidase (HRP) has a strong AFB1-degrading activity as well as hemin.

umu gene = format: cell-based
Description: Mutagenecity test was performed with the AFB1 degradation reaction mixture after hemin treatment. In the test, a conventional mutagenicity test kit “Umlac” (Nippon Antibody Laboratory) was used. Umlac is a kit for short-period mutagenicity test, umu-test, which was developed by Shinagawa (Research Institute for Microbial Diseases, Osaka University), et al. The test is to measure the expression level of umu gene using β-galactosidase activity as an index. The umu gene is considered to be a kind of SOS gene whose expression is induced by DNA-damaging chemicals, and known to be directly concerned with mutation. It has been confirmed that test result of “Umlac” well correlates with those of the Ames test and the carcinogenicity test that are currently used for typical mutagenicity test.
(§2) AFB1 degradation was performed at 50° C. for 6 hours in the presence or absence of hemin with the same reaction mixture as used in Example 1. After the reaction, the reaction mixture was subjected to the mutagenicity test with Umlac. Ten percent of DMSO aqueous solution was prepared as a control without AFB1, and then subjected to the same mutagenicity test.
Higher umu gene expression represents higher mutagenicity. The control value represents no mutagenicity.

[2] = format: biochemical
Description: […]. Here, 25 μL of 400 μM hemin suspension was added to it and incubated at 30° C. for 30 minutes. The final concentration of each component was: AFB1, 16 μM; hydrogen peroxide, 500 μM; Tween 80, 1%; hemin, 100 μM.
After the reaction, HPLC and TLC analyses were performed to confirm the degradation of AFB1 and the formation of reaction product. The equal amount of ethyl acetate was added to the reaction mixture, and extraction was done by mixing with a Voltex mixer for 1 minute. The resulting mixture was centrifuged at 10,000×g for 2 minutes, and the ethyl acetate layer (upper layer) was recovered in a new 0.5-mL microtube.
The extract was used for HPLC analysis in succession. The separation column used was a silica column, Shim-pack CLC-SIL (0.46×15 cm). […].
AFB1 degradation was performed at 30° C. for 30 minutes in the same manner as in Example 1 except that the amount of hemin added was varied.
After the reaction, the amount of remaining AFB1 and that of AFQ1 formed were measured quantitatively by HPLC.
AFB1 degradation was performed at 30° C. for 30 minutes in the same manner as in Example 1 except that the amount of hydrogen peroxide added was varied.
After the reaction, amount of the remaining AFB1 and that of AFQ1 formed were measured quantitatively by HPLC.
as §2

[3] = format: biochemical; remark: listed apart in the source
Text: as §1

[4] = Aniline degradation with hemin, HPLC; format: biochemical; conditions: 10 μM hemin, 50 μM aniline, 500 μM hydrogen peroxide, 30° C., reaction for 3 hours
Description: […]. Under this condition, the reaction mixture was uniform, thus no detergent was added to it.
After the reaction, equal amount of ethyl acetate was added to the reaction mixture, and extraction was done by mixing with a Voltex mixer for 1 minute, and then centrifuged at 10,000×g for 2 minutes. The resulting aniline-containing ethyl acetate layer (upper layer) was recovered in a new 0.5-mL microtube.
The ethyl acetate extract was directly subjected to HPLC analysis to determine the amount of remaining aniline. The column used was STRODS-II (0.46×15 cm). For mobile phase, 10% acetonitrile aqueous solution was used at the flow rate of 0.5 mL/min. With a UV-visible spectrophotometric detector (Shimadzu SPD-6AV), the absorbance at wave length of 280 nm was monitored for aniline detection.

[5] = format: biochemical; conditions: pH 7.5
[6] = Bisphenol A (BPA) degradation with hemin, HPLC; format: biochemical; conditions: 100 μM hemin, 400 μM BPA, 500 μM hydrogen peroxide, 30° C., reaction for 6 hours
Description: […]. hydrogen peroxide, 500 μM; Tween 80, 1%; hemin, 100 μM.
BPA degradation was confirmed by HPLC. After the reaction, a portion (100 μL) of the reaction mixture was taken, added to the equal amount of ethyl acetate, and extracted for 1 minute by mixing with a Voltex mixer. The mixture was centrifuged at 10,000×g for 2 minutes, and the ethyl acetate layer (upper layer) was recovered in a new 0.5-mL microtube.
HPLC analysis was conducted using the extract. The column used was STR ODS-II (0.46×15 cm). For the mobile phase for BPA quantification, 50% acetonitrile aqueous solution containing 0.1% trifluoroacetic acid was used at the flow rate of 0.7 mL/min. A UV-visible spectrophotometric detector (Shimadzu SPD-6AV) was used at the absorbance wave length of 277 nm for BPA detection.
For the mobile phase for the detection of BPA degradation product, 30% acetonitrile aqueous solution containing 0.1% trifluoroacetic acid was used at the flow rate of 0.5 mL/min. The absorbance at wave length of 280 nm was monitored for this detection.

Molecule: COc1cc2c(c3oc(=O)c4c(c13)C(O)CC4=O)C1C=COC1O2 (stereo not shown) [AFQ1, aflatoxin Q1]
- AFQ1 degradation, effect of temperature [1]: degraded much rapidly at 50 °C than 30 °C

Molecule: COc1cc2c(c3oc(=O)c4c(c13)CCC4=O)C1C=COC1O2 (stereo not shown) [AFB1, aflatoxin B1]
- umu Gene Expression (OD620) (umu gene): 1.185
- remaining AFB1 [2]: 12 µM

Molecule: HRP: Horseradish peroxidase
- AFB1-degrading activity [3]: strong
- AFQ1-degradation rate, presence vs absence of HRP ([1]; 1 μM AFQ1 in phosphate buffer, 30° C. or 50° C.): no significant difference

Molecule: hemin
- aniline relative to that initially added [4]: 45%
- umu Gene Expression (OD620) (umu gene; reaction mixture with AFB1 and hemin, treatment at 50° C. for 6 hours): 0.523
- AFB1 degraded ([2]; 200 μM hemin, 16 μM AFB1, 30° C. for 30 minutes): approximately 25%
- change in AFB1-degradation efficiency depending on hydrogen peroxide concentration ([2]; hemin, hydrogen peroxide 1.0 mM to 10 mM, 30° C. for 30 minutes): no significant increase
- remaining AFB1 ([2]; reaction mixture with hemin, 16 μM AFB1, 50° C. for 6 hours): ≤ 0.16 µM
- AFB1 added degraded ([2]; reaction mixture with hemin, 50° C. for 6 hours): more than 99%
- aflatoxin M1 disappeared [5]: 36%
- amount of BPA relative to that initially added [6]: 18%
